PubChem BioAssay AID248 (DTP/NCI, 2004)
Where “and” joins values, the source holds several entries; their conditions need not be identical. Identical values can stand only once. Inconclusive results and toxic doses are left out.

System: L1210 leukemia ip in BDF1 mice, survival T/C
Assay: NCI In Vivo Anticancer Drug Screen. Data for tumor model L1210 Leukemia (intraperitoneal) in B6D2F1 (BDF1) mice
Conditions: endpoint: mean survival time, higher = longer survival
Outline: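 Tumor was transplanted into mice, which were then dosed with test compound or vehicle alone. Survival was recorded for each group, and the treated figure was expressed relative to the control figure.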

[1] = dose: 6.25 mg/kg/injection, schedule: Q01DX009 (ip), vehicle: Klucel (hydroxypropylcellulose) (HPC)
[2] = dose: 12.5 mg/kg/injection, schedule: Q01DX009 (ip), vehicle: Klucel (hydroxypropylcellulose) (HPC)
[3] = dose: 50.0 mg/kg/injection, schedule: Q01DX009 (ip), vehicle: Klucel (hydroxypropylcellulose) (HPC)
[4] = dose: 100.0 mg/kg/injection, schedule: Q01DX001 (ip), vehicle: saline
[5] = dose: 200.0 mg/kg/injection, schedule: Q01DX001 (ip), vehicle: saline
[6] = dose: 400.0 mg/kg/injection, schedule: Q01DX001 (ip), vehicle: saline
[7] = dose: 100.0 mg/kg/injection, schedule: Q01DX009 (ip), vehicle: Klucel (hydroxypropylcellulose) (HPC)
[8] = dose: 200.0 mg/kg/injection, schedule: Q01DX009 (ip), vehicle: Klucel (hydroxypropylcellulose) (HPC)

## Oc1ccc2ccccc2c1/C=C/c1ccncc1
[1]
  T/C: 96 % of control
[2]
  T/C: 97 % of control
dose: 25.0 mg/kg/injection, schedule: Q01DX001 (ip), vehicle: Klucel (hydroxypropylcellulose) (HPC)
  T/C: 98 % of control
dose: 25.0 mg/kg/injection, schedule: Q01DX009 (ip), vehicle: Klucel (hydroxypropylcellulose) (HPC)
  T/C: 100 % of control
dose: 50.0 mg/kg/injection, schedule: Q01DX001 (ip), vehicle: Klucel (hydroxypropylcellulose) (HPC)
  T/C: 102 % of control
[3]
  T/C: 89 % of control
dose: 100.0 mg/kg/injection, schedule: Q01DX001 (ip), vehicle: Klucel (hydroxypropylcellulose) (HPC)
  T/C: 105 % of control and 91 % of control

## C=CCN(CC=C)/N=N/c1nc[nH]c1C(N)=O
dose: 37.5 mg/kg/injection, schedule: Q01DX009 (ip), vehicle: saline with Tween-80
  T/C: 104 % of control
dose: 75.0 mg/kg/injection, schedule: Q01DX009 (ip), vehicle: saline with Tween-80
  T/C: 100 % of control
dose: 150.0 mg/kg/injection, schedule: Q01DX009 (ip), vehicle: saline with Tween-80
  T/C: 98 % of control

## CSc1nnc([N+](=O)[O-])s1
[1]
  T/C: 94 % of control
[2]
  T/C: 90 % of control

## CC(=O)[O][Sn]([CH2]c1ccccc1)([CH2]c1ccccc1)[O]C(C)=O
dose: 100.0 mg/kg/injection, schedule: Q01DX009 (ip), vehicle: other
  T/C: 109 % of control
dose: 100.0 mg/kg/injection, schedule: Q04DX003 (ip), vehicle: other
  T/C: 92 % of control
dose: 200.0 mg/kg/injection, schedule: Q01DX009 (ip), vehicle: other
  T/C: 98 % of control
dose: 200.0 mg/kg/injection, schedule: Q04DX003 (ip), vehicle: other
  T/C: 97 % of control
dose: 400.0 mg/kg/injection, schedule: Q01DX009 (ip), vehicle: other
  T/C: 95 % of control
dose: 400.0 mg/kg/injection, schedule: Q04DX003 (ip), vehicle: other
  T/C: 95 % of control

## O=c1oc2ccccc2cc1P(=O)(O)O
dose: 50.0 mg/kg/injection, schedule: Q01DX001 (ip), vehicle: saline
  T/C: 91 % of control
[4]
  T/C: 95 % of control
[5]
  T/C: 95 % of control
[6]
  T/C: 97 % of control

## Cc1cc(O)c2c(c1)C(=O)C13C(=C2O)C(=O)C2C(O)C1C1C(O)C3C(=O)C3=C(O)c4c(O)cc(C)cc4C(=O)C321 (centres undefined)
dose: 20.0 mg/kg/injection, schedule: Q04DX003 (ip), vehicle: saline with Tween-80
  T/C: 107 % of control
dose: 40.0 mg/kg/injection, schedule: Q04DX003 (ip), vehicle: saline with Tween-80
  T/C: 100 % of control
dose: 80.0 mg/kg/injection, schedule: Q04DX003 (ip), vehicle: saline with Tween-80
  T/C: 102 % of control

## ClCC/C(=C(/Cl)c1ccccc1)c1ccccc1
dose: 100.0 mg/kg/injection, schedule: Q04DX003 (ip), vehicle: Klucel (hydroxypropylcellulose) (HPC)
  T/C: 103 % of control
dose: 200.0 mg/kg/injection, schedule: Q04DX003 (ip), vehicle: Klucel (hydroxypropylcellulose) (HPC)
  T/C: 98 % of control
dose: 400.0 mg/kg/injection, schedule: Q04DX003 (ip), vehicle: Klucel (hydroxypropylcellulose) (HPC)
  T/C: 98 % of control

## N=C1SCc2ccc3ccccc3c21
dose: 100.0 mg/kg/injection, schedule: Q01DX001 (ip), vehicle: other
  T/C: 92 % of control
dose: 200.0 mg/kg/injection, schedule: Q01DX001 (ip), vehicle: other
  T/C: 108 % of control
dose: 400.0 mg/kg/injection, schedule: Q01DX001 (ip), vehicle: other
  T/C: 97 % of control

## CC1SCC(NC(=O)N(CCCl)N=O)CS1 (centres undefined)
dose: 8.0 mg/kg/injection, schedule: Q01DX001 (ip), vehicle: saline with Tween-80
  T/C: 150 % of control
dose: 12.0 mg/kg/injection, schedule: Q01DX001 (ip), vehicle: saline with Tween-80
  T/C: 264 % of control
dose: 18.0 mg/kg/injection, schedule: Q01DX001 (ip), vehicle: saline with Tween-80
  T/C: 389 % of control
dose: 26.0 mg/kg/injection, schedule: Q01DX001 (ip), vehicle: saline with Tween-80
  T/C: 368 % of control
dose: 60.0 mg/kg/injection, schedule: Q01DX001 (ip), vehicle: saline with Tween-80
  T/C: 104 % of control

## CCOC(=O)c1cnc(NCC(C)(C)C)[nH]c1=O
[4]
  T/C: 95 % of control
[5]
  T/C: 91 % of control
[6]
  T/C: 91 % of control

## CCN(CC)CCCNc1nc(C(Cl)(Cl)Cl)nc2ccc(I)cc12
[7]
  T/C: 96 % of control
[8]
  T/C: 100 % of control

## Nc1ccc([N+](=O)[O-])cc1N=C/C=C/c1ccccc1
[3]
  T/C: 101 % of control
[7]
  T/C: 96 % of control
[8]
  T/C: 92 % of control

## O=[N+]([O-])c1ccc2scc3c4ccccc4nc-3c2c1
dose: 4.37 mg/kg/injection, schedule: Q01DX009 (ip), vehicle: Klucel (hydroxypropylcellulose) (HPC)
  T/C: 95 % of control
dose: 8.75 mg/kg/injection, schedule: Q01DX009 (ip), vehicle: Klucel (hydroxypropylcellulose) (HPC)
  T/C: 101 % of control
dose: 12.5 mg/kg/injection, schedule: Q04DX003 (ip), vehicle: saline
  T/C: 101 % of control
dose: 17.5 mg/kg/injection, schedule: Q01DX009 (ip), vehicle: Klucel (hydroxypropylcellulose) (HPC)
  T/C: 89 % of control
dose: 25.0 mg/kg/injection, schedule: Q04DX003 (ip), vehicle: saline
  T/C: 101 % of control
